This test addresses Clitocybe nebularis lectin (CNL) (Clitocybe nebularis, UniProt B2ZRS9). In words: hemagglutination inhibition assay, human group A erythrocytes. The conditions noted are these: CNL 18.6 µg/ml; 20 mM Tris/HCl, 130 mM NaCl, pH 7.5; room temperature.

SMILES strings stand for the structures. Converted amounts (≈) assume the structure as drawn.

Clitocybe nebularis lectin (CNL), sequence (B2ZRS9 2-149): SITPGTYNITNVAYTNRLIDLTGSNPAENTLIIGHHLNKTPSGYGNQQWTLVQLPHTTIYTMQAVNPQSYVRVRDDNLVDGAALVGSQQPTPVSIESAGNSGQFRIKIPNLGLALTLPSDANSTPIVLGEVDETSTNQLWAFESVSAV

`OC[C@H]1O[C@@H](O[C@H]2[C@H](O)[C@@H](O)C(O)O[C@@H]2CO)[C@H](O)[C@@H](O)[C@H]1O` (stereo partly shown) [lactose] came in with a minimum inhibitory concentration of 4.65 mM (≈ 1590 µg/mL).

The values are drawn from publication PMC2778273 (Biochimica et biophysica acta, 2008).
